According to US20060104951A1, “Akt and regulation of RA synovial fibroblast apoptosis” (priority 2004, published 2006):
Like-named read-outs stand apart in the source and are kept apart here.

How the values were obtained:
[1] = target: T1, Akt (Homo sapiens, UniProt P31749); conditions: Cell: HL-60 K562; cited from earlier work
[2] = target: T1, Akt; set-up: many cells; H2O2-treated B cells; conditions: Cell: IL-2 activated T cell; cited from earlier work
[3] = system: rheumatoid arthritis synovial fibroblasts (RASF); test: ATPlite-M cytotoxicity assay in RASF; conditions: wortmannin alone, 18 hours
[4] = target: T1, Akt; set-up: many cells; H2O2-treated B cells; conditions: Cell: Many; cited from earlier work
[5] = system: phosphorylated Akt (Thr308); test: Immunohistochemical staining of phosphorylated Akt in primary RASF; conditions: TNF-α 10 ng/ml alone vs PBS, 18 hours
Procedure: To determine if this TNF-α survival signal involves a PI 3-kinase dependent mechanism, RASF and OASF are treated with TNF-α (10 ng/ml), using PBS as a control, in the presence and absence of the PI 3-kinase inhibitor, wortmannin (50 nM). After 18 hours, the synovial fibroblasts are stained using an antibody specific for phosphorylated-Akt.
The in-situ expression of phosphorylated-Akt is determined by staining fixed cells with an antibody specific for Thr308 phosphorylated Akt (New England Biolabs, Beverly, Mass.). Quenching of endogenous peroxidase is performed by incubating tissue sections with 3% H2O2 at RT for 10 min in a humidified chamber. After washing with PBS, tissue sections are incubated with 0.1% trypsin at 37° C. for 10 min to reveal fixed antigen epitopes. Tissue sections are then treated with denaturing solution at 20° C. for 30 min and blocking solution at RT for 10 min followed by incubation with a horseradish peroxidase (HRP) conjugated antibody specific for phosphorylated-Akt antibody (New England Biolabs, Beverly, Mass.). Slides are incubated with DAB staining kit (DAKO) for color development then counterstained with methyl green. At least 5 areas from each specimen are chosen randomly for assessment of the percentage of Akt-positive cells.

[6] = system: Akt; test: Akt kinase assay (immunoprecipitated Akt, GSK-3 fusion protein substrate) in OASF; assay type: cell-based, human; conditions: TNF-α 10 ng/ml
Procedure: Active Akt phosphorylates GSK-3 at […].
Akt kinase assay of RA synovial fibroblasts is performed using Akt kinase assay kit according to the protocol provided by manufacturer (New England Biolabs, Beverly, Mass.). Briefly, three hundreds micrograms of total proteins from RA synovial fibroblasts are added into Akt antibody coated beads, incubated at 4° C. for 3 hours followed by washing. Phosphorylation of GSK-3 is used as an indicator of phosphorylated Akt, since Akt negatively regulates GSK-3a/b kinase activity via phosphorylation of GSK-3 at […]. After the kinase reaction, the reaction mixture is electrophoresed on a 12% SDS-PAGE gel and western blotted. The blots are probed with an anti-phospho-GSK-3a/b (Ser219) antibody (rabbit polyclonal IgG, affinity purified).

[7] = system: phosphorylated Akt; test: Western blot of phosphorylated-Akt in RASF lysates; conditions: TNF-α 10 ng/ml alone
Procedure: The levels of phosphorylated-Akt are determined by Western blot analysis of lysates from RASF and OASF cell lines.
To determine the optimal amount of AdAkt-DN required to inhibit Akt phosphorylation, RASF is transfected with either 50 pfu/cell of AdGFP or with 5 pfu/cell or with 50 pfu/cell of AdAkt-DN respectively for 18 hr. The cells are then stimulated with TNFα (10 ng/ml) for 18 hr.
For evaluation of the phosphorylated form of Akt, the synovial cells are washed twice with ice-cold PBS followed by incubation with 200 μl of cell lysis buffer (20 mmol/L Tris [pH 7.4], 150 mmol/L NaCl, 1 mmol/L EDTA, 1 mmol/L EGTA, 1% Triton, 2.5 mmol/L sodium pyrophosphate, 1 mmol/L β-glycerophosphate, 1 mmol/L Na3VO4, 1 μg/mL leupeptin, and 1 mmol/L PMSF) for 5 min on ice. The cells are then harvested by scraping and sonicated using a Branson Sonicator (3×5 seconds, output control 2, duty cycle 100%) on ice. After centrifugation for 10 min at 20,000 g at 4° C., the protein concentration of the supernatant is determined using the Bio-Rad protein assay kit (Bio-Rad, Hercules, Calif.). […] Phosphorylated Akt is detected using the PhosphoPlus Akt antibody kit (New England Biolabs, Beverly, Mass.).

T1 sequence (P31749 whole entry): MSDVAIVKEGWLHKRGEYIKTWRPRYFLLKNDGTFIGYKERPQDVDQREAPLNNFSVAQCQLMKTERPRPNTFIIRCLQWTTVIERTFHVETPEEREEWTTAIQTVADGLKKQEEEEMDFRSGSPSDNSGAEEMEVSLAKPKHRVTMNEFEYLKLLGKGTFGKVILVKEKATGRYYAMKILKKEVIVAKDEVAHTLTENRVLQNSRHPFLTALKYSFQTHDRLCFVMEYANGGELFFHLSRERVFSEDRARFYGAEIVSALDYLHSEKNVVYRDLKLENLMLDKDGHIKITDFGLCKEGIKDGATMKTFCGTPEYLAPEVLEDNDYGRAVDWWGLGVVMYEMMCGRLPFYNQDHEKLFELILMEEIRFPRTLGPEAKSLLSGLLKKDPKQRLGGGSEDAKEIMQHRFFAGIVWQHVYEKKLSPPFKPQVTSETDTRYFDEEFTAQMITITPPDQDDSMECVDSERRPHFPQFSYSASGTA

In the case of Cc1ccc(NC(=O)c2ccc(CN3CCN(C)CC3)cc2)cc1Nc1nccc(-c2cccnc2)n1 [CGP57148B], the Action [1] is given as “Block Akt”.

In the case of C[S+]([O-])c1ccc(-c2nc(-c3ccncc3)c(-c3ccc(F)cc3)[nH]2)cc1 (centres unmarked) [SB 203580], the Action [2] is listed as “Block Akt”.

For COC[C@H]1OC(=O)c2coc3c2[C@@]1(C)C1=C(C3=O)[C@@H]2CCC(=O)[C@@]2(C)C[C@H]1OC(C)=O [wortmannin], the “cytotoxicity (ATPlite)” value [3] was “Neither treatment with TNF-α nor wortmannin alone could induce cytotoxicity”.

For “Insulin-like growth factor-1: growth factor known to activate Akt”, the Action [4] is listed as “Activates Akt”.

For PDGF, the Action [4] is listed as “Activates Akt”.

For tumor necrosis factor-alpha [TNF-α], the “production of phosphorylated Akt (immunohistochemical staining)” value [5] was “greatly enhanced production of phosphorylated Akt”, the Akt kinase activity [6] was “did not induce Akt kinase activity” and the “levels of phosphorylated-Akt (Western blot)” value [7] was “marked increase”.
